*1 amine or outer side, *2 acyl side, *3 side chain or, on linkers, in order; H or OH if unused. Where a SMILES comes first, the peptide text is derived from it. Bridges are numbered along the chain shown (N, C = ends). Where no end group is shown, it is not given here. [ ]: non-standard residue; d: D form. ξ: configuration not given here. ξGly(dodecyl) = CCCCCCCCCCCCC(N)C(=O)O; mXylylene = c1cc(C[*:1])cc(C[*:2])c1
Legend:
[1] = Localization in spinal cord after injection at sciatic nerve defect; details: 1 mg injected into site of sciatic nerve defect, 48 hours
Experimental: FIG. 5. […] A 0.7 cm coronal spinal cord section from the […] region of a Sprague Dawley (SD) male rat showing the surrounding nuclei of the sciatic nerve, harvested 48 hours after 1 mg (1 mg/mL) of peptide was injected into the sight of a mid-thigh sciatic nerve defect injury.
Dosing and Procedure. […] After 48 hours, the animal was sacrificed and the spinal cord from the L4 to L6 region was sectioned coronally.
Immunohistochemistry. Hoechst 333429 (Calbiochem) dye was used to visualize the nucleus, and FLAG antibody (Sigma-Aldrich) was used to visualize the RPP. Images were taken with a light microscope.

NBFL cells = test: BDNF, NGF and KV4.3 transcript levels in NBFL cells dosed with linear or cyclic RPP; format: cell-based; details: 1 μM
Experimental: FIG. 9. Comparison of linear and cyclic RPP. […] Efficacy on was assessed by measuring changes in (A) BDNF, (B) NGF, and (C) KV4.3 transcript levels. N=1
Plasmids. RPP (SEQ ID NOS: 2 and 4): One segment of this construct containing T7 promoter, CPP, and His tag was synthesized as a gBlock (Table 8) by IDT and amplified with primers described in Table 8. The PCR reaction (20 μL) was initially heated at 95° C. for 2.5 min followed by 30 cycles of denaturation at 94° C. for 15 sec., annealing at 55° C. for 15 sec., and extension at 72° C. for 30 seconds. Following amplification, PCR fragment was gel-purified by the QIAGEN gel-band purification kit according to manufacturer's protocol.
In vitro Expression. RPP (Table 8) or CP (Table 9) were expressed in vitro using the PURE Express In Vitro Protein Synthesis Kit (New England Biolabs). The RPP (SEQ ID NOS: 2 and 4) or CP sequence was amplified from the RPP (SEQ ID NOS: 2 and 4) or CP expression constructs (Table 8 and 9) with primers listed in Table 8, and gel-purified by the QIAGEN gel-band purification kit. The PCR reaction (20 μL) was initially heated at 95° C. for 2.5 min followed by 30 cycles of denaturation at 94° C. for 15 sec., annealing at 55° C. for 15 sec., and extension at 72° C. for 30 sec. Then, 15 μL of the purified PCR fragment was mixed with 10 μL of Solution A and 7.5 μL of Solution B of the PURE Express In Vitro Protein Synthesis Kit (New England Biolabs) and incubated 2 hours at 37° C. Next, 2 μL of DNAse I was added and incubated for 20 min at 37° C.
Purification. RPP (SEQ ID NOS: 2 and 4) and CP: The final solution from the in vitro expression step was diluted to 100 μL and filtered through the Amicon Ultracel 0.5 mL-100K columns (Sigma) to remove ribosomes. The flow through was added to 100 μL of washed Ni-NTA Magnetic Agarose Beads (Qiagen) and was washed with wash buffer as described by the manufacturer.
Cyclization. The RPP (SEQ ID NO: 2) or was cyclized by mixing the beads with 500 μL of the cyclization solution which was made by mixing 2.65 mL of the 1.33×PBS (66.5 mM phosphate buffer, 400 mM NaCl) with 1.32 mL of dibromo-m-xylene solution in acetonitrile (2.5 mg/mL). Following incubation with the cyclization solution beads were washed once with wash buffer I (PBS with 25 mM imidazole, 0.5 μL/mL of mercaptoethanol), once with wash buffer II (PBS with 25 mM imidazole, 0.5 mM TCEP), twice with wash buffer III (PBS with 25 mM imidazole) and eluted with 50 μL of the elution buffer (PBS with 500 mM imidazole). Imidazole was removed using Bio-Rad Micro Bio-Spin Chromatography columns.
Dosing and Cell Culture. NBFL cells (FIG. 9) grown in 6 well were dosed with 1 μM of linear (SEQ ID NO: 2) or cyclic (SEQ ID NO: 2) RPP (Table 8) or control peptide (Table 9) for 16 or 48 hours.
After dosing, cells were lysed and assessed for BDNF, NGF, and KV4.3 mRNA levels (FIG. 9). All of the primers used have been described except for NGF: forward: 5′[…]3′ (SEQ ID NO: 338) and reverse 5′[…]3′ (SEQ ID NO: 339).

[2] = tested on: iPSCs (neural stem cells (NSC)-NL5); test: Neuronal differentiation of iPSC NSC-NL5 (MAP2, TUJ1 normalized to DAPI); format: cell-based, human; details: 7 days
Experimental: FIG. 11. iPSCs (neural stem cells (NSC)-NL5) were dosed with one of the RPP sequences (3 μM) or water control shown below. After 7 days in culture, cells were assessed for neuronal differentiation using the Microtubule Associated Protein 2 (MAP2) neuronal marker (normalized to DAPI). Media and variants were replaced on Day 3. MAP2 levels are relative to control in the bar graph (standard deviation n=4).
FIG. 12. iPSCs (neural stem cells (NSC)-NL5) were with 1 μM RPP (SEQ ID NO. 9) or water control. After 7 days in culture, cells were assessed for neuronal differentiation using neuronal markers TUJ1 (class III beta-tubulin) and MAP2 (both normalized to DAPI). Media and RPP were replaced on Day 3. (standard deviation, n=6).
FIG. 13. iPSCs (neural stem cells (NSC)-NL5) were with 1 μM RPP (SEQ ID NO. 13) or water control. After 7 days in culture, cells were assessed for neuronal differentiation using neuronal markers TUJ1 and MAP2 (both normalized to DAPI). Media and RPP were replaced on Day 3. (standard deviation, n=6).
Approach 2: Induced pluripotent stem cells (neural stem cells (NSC)-NL5) differentiate after 7 Days of RPP dosing (FIG. 11 (SEQ ID NOS: 5-11, 3 μM); FIG. 12 (SEQ ID NO: 9, 1 μM) FIG. 13 (SEQ ID NO: 13 (FIG. 27), 1 μM)) using the following “Neuron to Blank” protocol: • 1. 24 well culture plates (Black Visiplate) were coated with Matrigel ([…] for 30 minutes at 37° C.). • 2. NSCs-NLS (see media below) were plated at 0.5×10^5 per well.
• 3. After 24 hours (cells should be >70% confluent), the media was changed to neuronal differentiation medium (below) with various concentrations of test peptides or water control added (FIGS. 11, 12, and 13, Table 14). The neuronal differentiation medium, with new test peptides and control, was changed every 2 days for 5 days.
• 4. On Day 7 cells were fixed 4% formaldehyde in 1×PBS for 30 minutes. • 5. Cells were immunolabeled with mouse anti-TUJ1 (1:1000) and rabbit anti-Map2 (1:500) overnight. Then label with 2nd antibody (anti-mouse488, anti-rabbit568 and DAPi) for 1 hour. • 6. Data was collected on a BioTek plate reader • a. Dapi: Excitation 360/40; Emission 460/20, Gain 35; • b. Alexa 488: Excitation 485/20; Emission 528/20, Gain 50; • c. Alexa 568: Excitation 560/20; Emission 620/10, Gain 75).

L5 DRGs = test: qRT-PCR mRNA expression in ex vivo cultured L5 DRGs; format: cell-based, Sprague Dawley rat; details: DRG; 1 μM; 48 h
Experimental: FIG. 15. […] Error bars =standard error of the mean.
L5 DRGs were dissected from adult male rats and plated in 12-well plates pre-coated with poly-D-Lysine (PDL) and laminin in a minimal volume of medium (250 ul Neurobasal™-A medium (GIBCO) supplemented with B27 (GIBCO), 50 ng/ml NGF (Sigma-Aldrich) and penicillin streptomycin) to allow attachment to the culture plate. One day after plating, DRGs were incubated with RPP (SEQ. ID NO: 12: 1 μM, 3 μM or 10 μM in culture medium, FIGS. 14 and 16; SEQ ID NOS: 13 and 14: 3 μM, FIG. 15) for 48 h. For RNA expression analysis, DRGs were lysed in 300 μl of Qiazol in a 1.5 ml tube containing Bullet Blender Pink Beads using a Bullet Blender Tissue Homogenizer (NextAdvance). Total RNA was extracted using RNeasy Midi Kit (Qiagen) according to manufacturer's instructions. Purified RNA was quantified with NanoDrop 2000 (ThermoFIsher), and reverse transcription was run using High Capacity cDNA Reverse Transcription Kit (Applied Biosystems) and 2 ng/ul RNA per reaction. For qRT-PCR, 5 ul of cDNA (corresponding to 10 ng of RNA) were mixed with to 10 ul SsoAdvanced™ Universal SYBR® Green Supermix (BioRad) and 1 ul of each primer (final primer concentration 500 nM each). Reactions were run in triplicates in a QuantStudio™ 7 Flex Real-Time PCR system (Applied Biosystems). Amplification data were analyzed using the comparative cycle threshold (ΔΔCt) method and β-actin as calibrator. Primers were as follows: β-actin: F-[…] (SEQ ID NO: 340), R-[…] (SEQ ID NO: 333); KV4.3: F-[…] (SEQ ID NO: 341), R-[…] (SEQ ID NO: 342); KV7.2 F-[…] AG (SEQ ID NO: 343), R-[…] (SEQ ID NO: 344); OPRM1: F-[…] (SEQ ID NO: 345), R-[…] (SEQ ID NO: 346).

[3] = tested on: mesenchymal progenitor cells (MPCs); test: BDNF and NGF mRNA expression in MPCs; format: cell-based, human; details: MPC, 3 μM
Experimental: FIG. 10. BDNF and NGF mRNA expression (normalized to actin) in mesenchymal progenitor cells (MPCs), from two patients, after a 48 hour incubation with water (Ctrl) or […] RPP (SEQ. ID NO: 9). mRNA levels are shown relative to control (standard deviation, n=2).
Mesenchymal progenitor cells (MPCs) (FIG. 10) from two patients were plated on 12 well plates and cultured in general medium (GM) (DMEM, 10% FBS, PSF). Lyophilized RPP (SEQ ID NO: 9) was dissolved in water at a concentration of 5 mM (1 mg/34.89, diluted in medium to 3 μM, and then incubated with the cell for 48 hours. The control was water.
MPCs were cultured as described in Gervasi et al., 2020^76.

With `CC(C)C[C@H](NC(=O)[C@H](CC(=O)O)NC(=O)[C@H](CCC(=O)O)NC(=O)[C@@H](NC(=O)[C@H](CCCCN)NC(=O)[C@H](CC(=O)O)NC(=O)[C@H](CC(=O)O)NC(=O)[C@H](CC(=O)O)NC(=O)[C@H](CC(=O)O)NC(=O)[C@H](CCCCN)NC(=O)[C@H](Cc1ccc(O)cc1)NC(=O)[C@H](CC(=O)O)NC(=O)[C@H](CCCCN)NC(=O)[C@H](CCC(N)=O)NC(=O)[C@H](C)NC(=O)[C@@H](N)CS)[C@@H](C)O)C(=O)N[C@@H](CCC(=O)O)C(=O)N1CCC[C@H]1C(=O)N1CCC[C@H]1C(=O)N[C@@H](CCC(=O)O)C(=O)N1CCC[C@H]1C(=O)N1CCC[C@H]1C(=O)N[C@@H](CC(C)C)C(=O)N1CCC[C@H]1C(=O)N[C@@H](CCCCN)C(=O)N[C@@H](CCC(=O)O)C(=O)N[C@@H](CC(N)=O)C(=O)NCC(=O)N[C@@H](CCCNC(=N)N)C(=O)N[C@@H](CCCCN)C(=O)N[C@@H](CCCCN)C(=O)N[C@@H](CCCNC(=N)N)C(=O)N[C@@H](CCCNC(=N)N)C(=O)N[C@@H](CCC(N)=O)C(=O)N[C@@H](CCCNC(=N)N)C(=O)N[C@@H](CCCNC(=N)N)C(=O)N[C@@H](CCCNC(=N)N)C(=O)NCC(=O)O` [SEQ ID NO: 4] (H-CAQKDYKDDDDKTEDLEPPEPPLPKENGRKKRRQRRRG-OH; N-terminus and C-terminus assumed) the “localization in nuclei of sciatic nerve neurons in spinal cord” value [1] was “accumulates in the nuclei of the sciatic nerve in spinal cord” and the “localization in nuclei of sciatic nerve neurons in spinal cord” value ([1]; listed as Linear RPP) was “accumulates in the nucleus of sciatic nerve tissue”.

With “MCTEDLEPPEPPLPKENCGSGSGRKKRRQRRRGGSGSLGHHHHHHGTGY (linker 2-18 via mXylylene (inferred)) [SEQ ID NO: 2, RPP-CPP-His, cyclized with dibromo-m-xylene]” the “Increase, BDNF mRNA” value (NBFL cells; 16 h) was 5x, the “Increase, KV4.3 mRNA” value (NBFL cells; 16 h) was 5x and the “Increase, NGF mRNA” value (NBFL cells; 16 h) was 3.2x. For the same compound, the “Increase, BDNF mRNA” value (NBFL cells; 48 h) was 2.3x, the “Increase, KV4.3 mRNA” value (NBFL cells; 48 h) was 5x and the “Increase, NGF mRNA” value (NBFL cells; 48 h) was 1.7x. For the same compound, the “Increase, BDNF mRNA” value (NBFL cells; 48 h, listed as Cyclic) was 1.75× x, the “Increase, KV4.3 mRNA” value (NBFL cells; 48 h, listed as Cyclic) was 25× x and the “Increase, NGF mRNA” value (NBFL cells; 48 h, listed as Cyclic) was 1.87 x.

In the case of “SEQ ID NO: 13: CPP with poly arginine sequence and two 2-aminotetradecanoic acids integrated with the REST RI phosphomimetic ([dR][dR][ξGly(dodecyl)][dR][dR][ξGly(dodecyl)][dR][dR][dR][dR][dR][dK][dP][dL][dP][dP][dE][dP][dP][dE][dL][dD][dE])”, the “increase of differentiation, MAP2 normalized to DAPI” value ([2]; 0.1 μM) is reported as 27%, the “increase of differentiation, TUJ1 normalized to DAPI” value ([2]; 0.1 μM) is reported as 60% and the “increase of differentiation, MAP2 normalized to DAPI” value ([2]; 1 μM) is reported as 2 times. The “increase of differentiation, TUJ1 normalized to DAPI” value ([2]; 1 μM) was 3 times and the “Increase, Nav1.8 mRNA” value (L5 DRGs) was 6x.

In the case of “rrrrwrrwwrrwrrnekplppeppeldet ([dR][dR][dR][dR][dW][dR][dR][dW][dW][dR][dR][dW][dR][dR][dN][dE][dK][dP][dL][dP][dP][dE][dP][dP][dE][dL][dD][dE][dT]) [SEQ ID NO: 9]”, the “Increase, BDNF mRNA” value ([3]; 48 h) is reported as 2x, the “Increase, NGF mRNA” value ([3]; 48 h) is reported as 2.9x and the “increase of BDNF relative to water control” value ([3]; 48 hours) is reported as “approximately 2 times”. For the same compound, the “increase of NGF relative to water control” value ([3]; 48 hours) was ~3 times.

From US12180255B2, “Compositions and methods for derepressing RE1 silencing transcription factor target genes” (Alcamena Stem Cell Therapeutics, LLC, priority 2019, dated 2024)
